Experimental data reported in patent US20200361930A1, “BIFUNCTIONAL MOLECULES THAT DEGRADE EGFR” (Hoffmann-La Roche Inc., priority 2018, published 2020).

Target: T1, EGFR T790M/L858R/C797S (Homo sapiens, UniProt P00533, C797S/L858R/T790M)
T1 construct: expressed in transfected cells; host or cells: BaF3 (Ba/F3) cells, lentivirally transduced with a pCDH vector under the PGK promoter
Assay: EGFR degradation assay (cellular), FRET quantification of total EGFR
Format: cell-based
Details: BaF3 EGFR T790M/L858R/C797S cells, 4 hours incubation, total EGFR FRET signal, top concentration 1 μM; read-out: IC50 value (BaF3 EGFR T790M/L858R/C797S degradation)
Method: EGFR Degradation Assay (Cellular)
The BaF3 parental line was purchased from DSMZ and grown in RPMI media supplemented with 10% FBS and 10 ng/mL interleukin 3 (IL-3) (Thermo Fisher Scientific). EGFR mutants (T790M/L853R, T790M/L853R/C797S) were cloned into the pCDH lentiviral vector (SystemBio) under the control of a PGK promoter and confirmed by DNA sequencing. The resulting gene expression vector for each mutant was mixed with packaging vectors and cotransfected into 2×10E6 HEK293T cells (ATCC) in 10 mL of DMEM media to generate lentiviral particles according to the manufacturers protocol (Origene).
Three days post-transfection, the viral supernatant was harvested and filtered. In one well of a 12-well plate, 0.5 mL of viral supernatant was added to 2E6 Ba/F3 cells contained in 1.5 mL of RPMI media including 10% FBS, 10 ng/mL IL-3, and 5 μg/mL polybrene (Invitrogen). The plate was centrifuged at 2,000 rpm for 1 hour at room temperature and infected cells were kept in a tissue culture incubator overnight at 37° C. The cells were washed once in fresh BaF3 media and reseeded at 0.5E6 cells/well of a 12-well plate in media supplemented with 0.5 μg/mL puromycin. The cells were maintained in this media for 3 weeks. IL-3-independent, EGFR mutant transformed cells were routinely maintained in RPMI medium supplemented with 10% FBS.
RPMI 1640 no-phenol red medium and fetal bovine serum (FBS) were purchased from Gibco (Grand Island, N.Y., USA). EGFR total kit and EGFR phospho-Y1068 kit were purchased from Cisbio (Bedford, Mass., USA). BaF3 EGFR mutant cell lines (EGFR T790M/L858R/C797S) cell line was generated in house, according to the protocol reported above. Cell culture flasks and 384-well microplates were acquired from VWR (Radnor, Pa., USA).
EGFR degradation was determined based on quantification of FRET signal using EGFR total kit. The FRET signal detected correlates with total EGFR protein level in cells. Briefly, test compounds were added to the 384-well plate from a top concentration of 1 μM with 11 points, half log titration in quadruplicates. Then, BaF3 EGFR mutant cell lines (EGFR T790M/L858R/C797S) were added into 384-well plates at a cell density of 10000 cells per well. The plates were kept at 37° C. with 5% CO2 for 4 hours. After 4-hour incubation, 4× lysis buffer was added to the cells, and then then microplate was agitated on plate shaker at 500 rpm for 30 minutes at room temperature. Next, total EGFR antibody solution was added to the cells and the cells were incubated for another 4 hours at room temperature. Finally, FRET signal was acquired on EnVision™ Multilabel Reader (PerkinElmer, Santa Clara, Calif., USA). The cells treated in the absence of the test compound were the negative control and lysis buffer with antibody solution only were the positive control.

T1 sequence (P00533 25-1210 T790M/C797S/L858R): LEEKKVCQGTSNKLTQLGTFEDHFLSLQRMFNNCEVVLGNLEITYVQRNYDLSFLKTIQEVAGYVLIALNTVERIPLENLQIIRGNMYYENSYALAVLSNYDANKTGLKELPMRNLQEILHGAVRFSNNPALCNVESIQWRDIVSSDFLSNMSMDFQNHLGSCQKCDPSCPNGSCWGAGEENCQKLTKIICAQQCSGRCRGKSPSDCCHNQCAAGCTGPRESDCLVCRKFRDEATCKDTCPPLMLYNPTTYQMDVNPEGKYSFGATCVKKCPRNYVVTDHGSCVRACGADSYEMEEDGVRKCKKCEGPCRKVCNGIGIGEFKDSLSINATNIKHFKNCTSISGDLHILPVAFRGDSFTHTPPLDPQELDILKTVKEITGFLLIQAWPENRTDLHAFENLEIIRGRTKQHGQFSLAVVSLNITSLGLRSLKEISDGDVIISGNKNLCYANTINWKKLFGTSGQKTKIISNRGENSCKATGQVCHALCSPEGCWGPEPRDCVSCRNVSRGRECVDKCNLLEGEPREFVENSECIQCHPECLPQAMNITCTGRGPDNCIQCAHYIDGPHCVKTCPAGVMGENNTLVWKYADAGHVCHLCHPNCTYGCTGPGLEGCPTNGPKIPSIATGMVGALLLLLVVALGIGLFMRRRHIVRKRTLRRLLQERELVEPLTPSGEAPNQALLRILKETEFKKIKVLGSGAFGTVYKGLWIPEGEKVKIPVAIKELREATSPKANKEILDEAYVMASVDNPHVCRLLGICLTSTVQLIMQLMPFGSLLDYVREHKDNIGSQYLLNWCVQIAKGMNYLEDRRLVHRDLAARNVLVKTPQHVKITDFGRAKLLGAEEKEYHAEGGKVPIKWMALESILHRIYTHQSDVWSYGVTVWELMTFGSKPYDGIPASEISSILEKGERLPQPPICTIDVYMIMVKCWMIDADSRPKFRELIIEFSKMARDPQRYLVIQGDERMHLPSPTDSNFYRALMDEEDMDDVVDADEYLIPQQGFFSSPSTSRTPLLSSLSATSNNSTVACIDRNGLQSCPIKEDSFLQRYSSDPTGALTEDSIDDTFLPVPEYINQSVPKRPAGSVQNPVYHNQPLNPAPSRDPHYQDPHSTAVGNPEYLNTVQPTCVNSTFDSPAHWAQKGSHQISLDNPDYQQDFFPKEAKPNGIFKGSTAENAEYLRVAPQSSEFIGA

Row | DC50 [nM] | SMILES
1 | 40 | O=C1CCC(N2C(=O)c3cccc(NCCCCCC(=O)N4CCN(Cc5ccc(C#Cc6ccc7c(c6)C(=O)N(C(C(=O)Nc6nccs6)c6ccccc6)C7)cc5)CC4)c3C2=O)C(=O)N1 (racemic) [Example 1, (2RS)-2-[6-[2-[4-[[4-[6-[[2-[(3RS)-2,6-Dioxo-3-piperidyl]-1,3-dioxo-isoindolin-4-yl]amino]hexanoyl]piperazin-1-yl]methyl]phenyl]ethynyl]-1-oxo-isoindolin-2-yl]-2-phenyl-N-thiazol-2-yl-acetamide]
2 | 21 | O=C1CCC(N2C(=O)c3cccc(NCCCC(=O)N4CCC(NC(=O)c5ccc(C#Cc6ccc7c(c6)C(=O)N(C(C(=O)Nc6nccs6)c6ccccc6)C7)cn5)CC4)c3C2=O)C(=O)N1 (racemic) [Example 2, N-[1-[4-[[2-[(3RS)-2,6-Dioxo-3-piperidyl]-1,3-dioxo-isoindolin-4-yl]amino]butanoyl]-4-piperidyl]-5-[2-[3-oxo-2-[(1RS)-2-oxo-1-phenyl-2-(thiazol-2-ylamino)ethyl]isoindolin-5-yl]ethynyl]pyridine-2-carboxamide]
3 | 35 | O=C1CCC(N2C(=O)c3cccc(NCCCC(=O)N4CCN(Cc5ccc(C#Cc6ccc7c(c6)C(=O)N(C(C(=O)Nc6nccs6)c6ccccc6)C7)cc5)CC4)c3C2=O)C(=O)N1 (racemic) [Example 3, (2RS)-2-[6-[2-[4-[[4-[4-[[2-[(3RS)-2,6-Dioxo-3-piperidyl]-1,3-dioxo-isoindolin-4-yl]amino]butanoyl]piperazin-1-yl]methyl]phenyl]ethynyl]-1-oxo-isoindolin-2-yl]-2-phenyl-N-thiazol-2-yl-acetamide]
4 | 14 | O=C1CCC(N2C(=O)c3cccc(NCCCC(=O)N4CCN(Cc5ccc(C#Cc6ccc7c(c6)C(=O)N(C(C(=O)Nc6nccs6)c6ccccc6)C7)cn5)CC4)c3C2=O)C(=O)N1 (racemic) [Example 4, (2RS)-2-[6-[2-[6-[[4-[4-[[2-[(3RS)-2,6-Dioxo-3-piperidyl]-1,3-dioxo-isoindolin-4-yl]amino]butanoyl]piperazin-1-yl]methyl]-3-pyridyl]ethynyl]-1-oxo-isoindolin-2-yl]-2-phenyl-N-thiazol-2-yl-acetamide]
5 | 18 | O=C1CCC(N2C(=O)c3cccc(NCC(=O)N4CCC(NC(=O)c5ccc(C#Cc6ccc7c(c6)C(=O)N(C(C(=O)Nc6nccs6)c6ccccc6)C7)cn5)CC4)c3C2=O)C(=O)N1 (racemic) [Example 5, N-[1-[2-[[2-[(3RS)-2,6-Dioxo-3-piperidyl]-1,3-dioxo-isoindolin-4-yl]amino]acetyl]-4-piperidyl]-5-[2-[3-oxo-2-[(1RS)-2-oxo-1-phenyl-2-(thiazol-2-ylamino)ethyl]isoindolin-5-yl]ethynyl]pyridine-2-carboxamide]
6 | 21 | O=C1CCC(N2C(=O)c3cccc(NCCCCN4CCC(NC(=O)c5ccc(C#Cc6ccc7c(c6)C(=O)N(C(C(=O)Nc6nccs6)c6ccccc6)C7)cn5)CC4)c3C2=O)C(=O)N1 (racemic) [Example 6, N-[1-[4-[[2-[(3RS)-2,6-Dioxo-3-piperidyl]-1,3-dioxo-isoindolin-4-yl]amino]butyl]-4-piperidyl]-5-[2-[3-oxo-2-[(1RS)-2-oxo-1-phenyl-2-(thiazol-2-ylamino)ethyl]isoindolin-5-yl]ethynyl]pyridine-2-carboxamide]
7 | 12 | O=C1CCC(N2C(=O)c3cccc(NCCCC(=O)N4CCC(NC(=O)c5ccc(C#Cc6ccc7c(c6)C(=O)N(C(C(=O)Nc6nccs6)c6cc(F)ccc6O)C7)cn5)CC4)c3C2=O)C(=O)N1 (racemic) [Example 7, N-[1-[4-[[2-[(3RS)-2,6-Dioxo-3-piperidyl]-1,3-dioxo-isoindolin-4-yl]amino]butanoyl]-4-piperidyl]-5-[2-[2-[(1RS)-1-(5-fluoro-2-hydroxy-phenyl)-2-oxo-2-(thiazol-2-ylamino)ethyl]-3-oxo-isoindolin-5-yl]ethynyl]pyridine-2-carboxamide]
8 | 20 | O=C1CCC(N2C(=O)c3cccc(NCCCCN4CCC(NC(=O)c5ncc(C#Cc6ccc7c(c6)C(=O)N(C(C(=O)Nc6nccs6)c6ccccc6)C7)cc5F)CC4)c3C2=O)C(=O)N1 (racemic) [Example 8, N-[1-[4-[[2-[(3RS)-2,6-Dioxo-3-piperidyl]-1,3-dioxo-isoindolin-4-yl]amino]butyl]-4-piperidyl]-3-fluoro-5-[2-[3-oxo-2-[(1RS)-2-oxo-1-phenyl-2-(thiazol-2-ylamino)ethyl]isoindolin-5-yl]ethynyl]pyridine-2-carboxamide]
9 | 52 | O=C1CCC(N2C(=O)c3cccc(NCCCCN4CCC(NC(=O)c5ccc(C#Cc6ccc7c(c6)C(=O)N(C(C(=O)Nc6ccccn6)c6ccccc6)C7)cn5)CC4)c3C2=O)C(=O)N1 (racemic) [Example 9, N-[1-[4-[[2-[(3RS)-2,6-Dioxo-3-piperidyl]-1,3-dioxo-isoindolin-4-yl]amino]butyl]-4-piperidyl]-5-[2-[3-oxo-2-[(1RS)-2-oxo-1-phenyl-2-(2-pyridylamino)ethyl]isoindolin-5-yl]ethynyl]pyridine-2-carboxamide]
10 | 13 | O=C1CCC(N2C(=O)c3cccc(NCCCCN4CCC(NC(=O)c5ccc(C#Cc6ccc7c(c6)C(=O)N(C(C(=O)Nc6nccs6)c6cc(F)ccc6O)C7)cn5)CC4)c3C2=O)C(=O)N1 (racemic) [Example 10, N-[1-[4-[[2-[(3RS)-2,6-Dioxo-3-piperidyl]-1,3-dioxo-isoindolin-4-yl]amino]butyl]-4-piperidyl]-5-[2-[2-[(1RS)-1-(5-fluoro-2-hydroxy-phenyl)-2-oxo-2-(thiazol-2-ylamino)ethyl]-3-oxo-isoindolin-5-yl]ethynyl]pyridine-2-carboxamide]
11 | 48 | O=C1CCC(N2C(=O)c3ccc(N4CCC(CN5CCC(NC(=O)c6ccc(C#Cc7ccc8c(c7)C(=O)N(C(C(=O)Nc7ccccn7)c7ccccc7)C8)cn6)CC5)CC4)cc3C2=O)C(=O)N1 (racemic) [Example 11, N-[1-[[1-[2-[(3RS)-2,6-Dioxo-3-piperidyl]-1,3-dioxo-isoindolin-5-yl]-4-piperidyl]methyl]-4-piperidyl]-5-[2-[3-oxo-2-[(1RS)-2-oxo-1-phenyl-2-(2-pyridylamino)ethyl]isoindolin-5-yl]ethynyl]pyridine-2-carboxamide]
12 | 38 | O=C1CCC(N2C(=O)c3cccc(N4CCC(CC(=O)N5CCN(Cc6ccc(C#Cc7ccc8c(c7)C(=O)N(C(C(=O)Nc7ccccn7)c7ccccc7)C8)cn6)CC5)CC4)c3C2=O)C(=O)N1 (racemic) [Example 12, (2RS)-2-[6-[2-[6-[[4-[2-[1-[2-[(3RS)-2,6-Dioxo-3-piperidyl]-1,3-dioxo-isoindolin-4-yl]-4-piperidyl]acetyl]piperazin-1-yl]methyl]-3-pyridyl]ethynyl]-1-oxo-isoindolin-2-yl]-2-phenyl-N-(2-pyridyl)acetamide]
